Read-outs that look alike come from different tables or passages of the source.
What was measured:
DENV-2 16681 strain = assay: DENV-2 antiviral assay (eGFP fluorescence, Vero cells); format: cell-based, Dengue virus; conditions: DENV-2 16681 eGFP, MOI 0.5, 3 days
Method: The antiviral activity of all the compounds of the invention was tested against the DENV-2 16681 strain which was labeled with enhanced green fluorescent protein (eGPF; Table 1). The culture medium consists of minimal essential medium supplemented with 2% of heat-inactivated fetal calf serum, 0.04% gentamycin (50 mg/mL) and 2 mM of L-glutamine. Vero cells, obtained from ECACC, were suspended in culture medium and 25 μL was added to 384-well plates (2500 cells/well), which already contain the antiviral compounds. Typically, these plates contain a 5-fold serial dilution of 9 dilution steps of the test compound at 200 times the final concentration in 100% DMSO (200 nL). […] Finally, each plate contains wells which are assigned as virus controls (containing cells and virus in the absence of compound), cell controls (containing cells in the absence of virus and compound) and medium controls (containing medium in the absence of cells, virus and compounds). To the wells assigned as medium control, 25 μL of culture medium was added instead of Vero cells. Once the cells were added to the plates, the plates were incubated for 30 minutes at room temperature to allow the cells to distribute evenly within the wells. Next, the plates were incubated in a fully humidified incubator (37° C., 5% CO2) until the next day. Then, DENV-2 strain 16681, labeled with eGFP, was added at a multiplicity of infection (MOI) of 0.5. Therefore, 15 μL of virus suspension was added to all the wells containing test compound and to the wells assigned as virus control. In parallel, 15 μL of culture medium was added to the medium and cell controls. Next, the plates were incubated for 3 days in a fully humidified incubator (37° C., 5% CO2). At the day of the read out, the eGFP fluorescence was measured using an automated fluorescence microscope at 488 nm (blue laser). Using an in-house LIMS system, inhibition dose response curves for each compound were calculated and the half maximal effective concentration (EC50) was determined. Therefore, the percent inhibition (I) for every test concentration is calculated using the following formula: I=100*(ST−SCC)/(SVC−SCC); ST, SCC and SVC are the amount of eGFP signal in the test compound, cell control and virus control wells, respectively. The EC50 represents the concentration of a compound at which the virus replication is inhibited with 50%, as measured by a 50% reduction of the eGFP fluorescent intensity compared to the virus control. The EC50 is calculated using linear interpolation.

DENV-1 strain TC974#666 = assay: Tetravalent RT-qPCR assay Protocol A, serotype 1; format: cell-based; conditions: Dengue virus, DENV1, 72 h, RT-qPCR serotype 1 TC974#666, Vero cells, day 3
Method: (§1) The antiviral activity of the compounds of the invention was tested against DENV-1 strain TC974#666 (NCPV; Table 6), DENV-2 strain 16681 (Table 7), DENV-3 strain H87 (NCPV; Table 8) and DENV-4 strains H241 (NCPV; Table 9A) and SG/06K2270DK1/2005 (Eden; Table 9B) in a RT-qPCR assay. Therefore, Vero cells were infected with either DENV-1, or -2, or -3, or -4 in the presence or absence of test compounds. At day 3 post-infection, the cells were lysed and cell lysates were used to prepare cDNA of both a viral target (the 3′UTR of DENV; Table 2) and a cellular reference gene (β-actin, Table 2). Subsequently, a duplex real time PCR was performed on a Lightcycler480 instrument. The generated Cp value is inversely proportional to the amount of RNA expression of these targets. Inhibition of DENV replication by test compound results in a shift of Cp's for the 3′UTR gene. On the other hand, if a test compound is toxic to the cells, a similar effect on β-actin expression will be observed. The comparative ΔΔCp method is used to calculate EC50, which is based on the relative gene expression of the target gene (3′UTR) normalized with the cellular housekeeping gene (β-actin).
(§2) The culture medium consisted of minimal essential medium supplemented with 2% of heat-inactivated fetal calf serum, 0.04% gentamycin (50 mg/mL) and 2 mM of L-glutamine. Vero cells, obtained from ECACC, were suspended in culture medium and 75 μL/well was added in 96-well plates (10000 cells/well), which already contain the antiviral compounds. […] In addition, each plate contains wells which are assigned as virus controls (containing cells and virus in the absence of compound) and cell controls (containing cells in the absence of virus and compound). Once the cells were added in the plates, the plates were incubated in a fully humidified incubator (37° C., 5% CO2) until the next day. Dengue viruses serotype-1, 2, 3 and 4 were diluted in order to obtain a Cp of ˜22-24 in the assay. Therefore, 25 μL of virus suspension was added to all the wells containing test compound and to the wells assigned as virus control. In parallel, 25 μL of culture medium was added to the cell controls. Next, the plates were incubated for 3 days in a fully humidified incubator (37° C., 5% CO2). After 3 days, the supernatant was removed from the wells and the cells were washed twice with ice-cold PBS (˜100 μL). The cell pellets within the 96-well plates were stored at −80° C. for at least 1 day. Next, RNA was extracted using the Cells-to-CT™ lysis kit, according to the manufacturer's guideline (Life Technologies). The cell lysates can be stored at −80° C. or immediately used in the reverse transcription step.
(§3) In preparation of the reverse transcription step, mix A (table 3A) was prepared and 7.57 μL/well was dispensed in a 96-well plate. After addition of 5 μL of the cell lysates, a five minute denaturation step at 75° C. was performed (table 3B). Afterwards, 7.43 μL of mix B was added (table 3C) and the reverse transcription step was initiated (table 3D) to generate cDNA.
(§4) Finally, a RT-qPCR mix was prepared, mix C (table 4A), and 22.02 μL/well was dispensed in 96-well LightCycler qPCR plates to which 3 μL of cDNA was added and the qPCR was performed according to the conditions in table 4B on a LightCycler 480.
(§5) Using the LightCycler software and an in-house LIMS system, dose response curves for each compound were calculated and the half maximal effective concentration (EC50) and the half maximal cytotoxic concentration (CC50) were determined.

DENV-2 strain 16681 = assay: Tetravalent RT-qPCR assay Protocol A, serotype 2; format: cell-based; conditions: Dengue virus, DENV2, 72 h; Protocol A, RT-qPCR serotype 2 16681, Vero cells, day 3; read-out: EC50
Method: as §1, §2, §3, §4, §5

DENV-3 strain H87 = assay: Tetravalent RT-qPCR assay Protocol A, serotype 3; format: cell-based; conditions: Dengue virus, DENV3, 72 h, RT-qPCR serotype 3 H87, Vero cells, day 3
Method: as §1, §2, §3, §4, §5

DENV-4 strain H241 = assay: Tetravalent RT-qPCR assay Protocol A, serotype 4 H241; format: cell-based; conditions: Dengue virus, DENV4, Vero, 72 h
Method: as §1, §2, §3, §4, §5

in vitro = format: cell-based; conditions: African green monkey, CC50
Method: as §1, §2, §5

Vero cells [1] = assay: in vitro; format: cell-based; conditions: African green monkey, 3 days
Method: as §1, §2, §5

Vero cells [2] = conditions: African green monkey

## COc1cc(NC(C(=O)c2c[nH]c3cc(OC)c(OC(F)(F)F)cc23)c2ccc(Cl)cc2OC)cc(S(C)(=O)=O)c1 (single isomer, unassigned) [Compound 10A, 2-(4-chloro-2-methoxyphenyl)-2-((3-methoxy-5-(methylsulfonyl)phenyl)amino)-1-(6-methoxy-5-(trifluoromethoxy)-1H-indol-3-yl)ethanone]
DENV-2 16681 strain
  EC50: 0.12 nM
DENV-1 strain TC974#666
  EC50: 0.27 nM
DENV-2 strain 16681
  EC50: 0.057 nM
DENV-3 strain H87
  EC50: 3.7 nM
DENV-4 strain H241
  EC50: 11 nM
In vitro
  CC50 at 3 days: 1600 nM
Vero cells [1]
  CC50: 1000 nM
Vero cells [2]
  CC50: 2600 nM
